These results are taken from patent EP0562849A2, “Steroid derivatives” (priority 1992, dated 1993).

Values joined by “and” are separate entries in the source; they are usually repeats but may differ in a detail not shown here. Equal entries are not always repeated. Where two headings read alike, the source gives them in different places.

The assay has as its system human LDL receptor promoter. Description: in vitro Luciferase Activity Test (LDL receptor promoter-luciferase reporter in recombinant CHO cells). In kind it is cell-based. On the set-up: MED: unit not given here. The note with it: for MED: minimum effective dose (molar concentration, unit not given), 24 hr, assay medium with 0.5 µg/ml 25-hydroxycholesterol; for MA% / Emax: maximum activity (%) over control; for Emax: Homo sapiens, CHO, read-out: MA%; for RED: relative effective dose compared to compound of Example 4, below one = more active. Here is the method: A 1546 base pair sequence of the human LDL receptor promoter was amplified using the polymerase chain reaction. A reaction mixture containing 20 pMoles each of the synthetic oligonucleotides 5'-[…]-3' (Seq. I.D. No: 1) and 5'-AAG-[…]-3', (Seq. I.D. No:2) 1 µg human genomic DNA purified from the adenocarcinoma cell line P3UCLA, 200 µM each of dATP, dGTP, dCTP, and TTP, 2.5 units of Taq DNA polymerase, 10mM Tris-HCI pH 8.3, 50 mM KCI, […], 0.1% gelatin in a final volume of 100 µl was subjected to 30 cycles of 15 sec at 96°C, 30 sec at 55°C, and 1 min at 72°C. The material was subject to gel electrophoresis on a 1% agarose gel and the 1546 base pair band was isolated and restriction enzyme digested with Hind III and Nde I. This fragment was ligated into the plasmid pSP72 (ProMega Biotech), which had previously been restriction enzyme nuclease digested with Hind III and Nde I. The resulting vector, pNLDLRP, was restriction endonulease digested with Ndel and Hind III and the material was again run on a 1% agarose gel to reisolate the 1546 bp LDL receptor sequence.
Plasmid vector PSv2 was constructed by digesting plasmid pSv2-globin with Hind III and Bgl II then ligating an Nrul-Xhol linker into the vector. Plasmid pSv2 globin is disclosed in U.S. Patent No. 4,775,624, the entire teaching of which is herein incorporated by reference. The linker contained the following sequences: [formula] (Seq. I.D. No: 3), and [formula] ' (Seq. I.D. No:4).
The resulting vector was designated pSv2-H NXB because it contained a […], an Nrul site, an Xhol site and a Bgl site. The Hind III-Bgl II fragment of plasmid pAlc4(NRRL B-18783), which contains the firefly luciferase gene, was then ligated into the Hin III-Bgl site of plasmid pSv2-HNXB. A neomycin resistance-conforming gene was then ligated into the Bam HI site of the resultant plasmid to form plasmid pSv2.
A 1546 base pair fragment was isolated and cloned into a Ndel and Hind III (partial) restriction digested vector pSv2 containing the firefly luciferase reporter gene and a gene for neomycin resistance. The resulting vector, pLDL-Luc1 Neo-10, contains the human LDL receptor promoter driving expression of the firefly luciferase gene, a gene coding for neomycin resistance, ampicillin resistant marker and an origin of replication.
Plasmid pLDL-Luc 1 Neo-10 was used to stably transfect Chinese Hamster Ovary cells using a Lipofection Reagent kit and procedure from Gibco BRL Research Products Division Life Technologies Inc. Transformants were selected by picking individual colonies grown in Dulbecco's modified Eagle's medium supplimented with 10% fetal bovine serum and containing 500 µg per ml […]. […] Clone S27/B30 was used for subsequent screening.
In developing a cell based screen it is important to have a negative control. The viral SV40 promoter is ideal for this purpose in that it has a number of SP1 elements that enhance gene transcription. These elements are not under the control of end product repression; but they do have a high degree of sequence homology with the 16 base pair long sterol response element found in the LDL receptor promoter. The SV40 promoter should therefore be a sensitive mechanism to screen out agents that induce nonspecific transcription.
Chinese Hamster Ovary cells were stably cotransfected with a vector pSV2AL-A 5' containing the SV40 promoter driving expression of the firefly luciferase gene and a second vector pSV2 NeoBam containing a neomycin resistant marker. Transfections were carried out using the Lipofectin Reagent kit and procedure from Gibco BRL Research Products Division Life Technologies Inc. Transformants were selected by picking individual colonies grown in Dulbecco's modified Eagle's medium supplemented with 10% fetal bovine serum and containing 500 µg per ml of geneticin. Individual clones were selected, lysed and assayed for luciferase production. […]
(In a reporter assay the amount or activity of a reporter protein is the signal.)

Setting [1] is: tests using 15% luciferase activity cutoff point (footnote 2).
The mark [2] stands for this setting: 15% luciferase activity cutoff point (footnote 2).
Setting [3] is: NA is not active, 30% luciferase activity cutoff point (footnote 1).
The mark [4] stands for this setting: tests using 30% luciferase activity cutoff point (footnote 1).
[5] abbreviates: 30% luciferase activity cutoff point (footnote 1).

`C=CC[C@@H]1[C@H](O)CC[C@@]2(C)[C@H]1CC[C@@H]1[C@@H]2CC[C@]2(C)C(OCCCCCCCC)CC[C@@H]12` (stereo partly shown) [Example 65, (3a,4a,5a)-17-(octyloxy)-4-(2-propenyl)androstan-3-ol]: under setting [1], the MED is 11.3 and 22.5.
Take `C=CC[C@H]1C2CC[C@@H]3[C@H](CC[C@]4(C)C(OCCCc5ccccc5)CC[C@@H]34)[C@@]2(C)CC[C@H]1O` (stereo partly drawn) [Example 67, (3α,4α)-17-(3-phenylpropoxy)-4-(2-propenyl)androstan-3-ol]: the MA% is 116% and 118% and 74% under setting [2]; 111% and 76% under setting [3]. For the same compound, the MED under setting [4] was 11.1 and 22.2.
As for `C=CC[C@H]1C2CC[C@@H]3[C@H](CC[C@]4(C)C(OCCCC(C)(C)C)CC[C@@H]34)[C@@]2(C)CC[C@H]1O` (stereo partly drawn) [Example 69, (3α,4α)-17-[(4,4-dimethylpentyl)oxy]-4-(2-propenyl)-androstan-3-ol], under setting [2], the Emax was found to be 48% and the RED is 20.5. Besides, under setting [3], the Emax stood at 39% and the MA% is listed as 47%. Also, under setting [1], the MED is recorded as 46.5. Besides, the RED under setting [5] was 16.4 and 8.2.
Take `C=CC[C@@H]1C(=O)/C(=C/O)C[C@]2(C)[C@H]3CC[C@]4(C)[C@@H]([C@H](C)CCCC(C)C)CC[C@H]4[C@@H]3CC[C@@H]12` [Example 73, 4a-2-(hydroxymethylene)-4-(2-propenyl)cholestan-3-one]: under setting [2], the Emax was found to be 27% and the RED was 0.97. For the same compound, the MED under setting [1] came to 11.0.
As for `CC(C)CCC[C@@H](C)[C@H]1CC[C@H]2[C@@H]3CC[C@H]4C[C@H](O)[C@H](Cc5ccc(F)cc5)C[C@]4(C)[C@H]3CC[C@]12C` [Example 79, (2a, 3a, 5a)-2-[(4-fluorophenyl)methyl]cholestan-3-ol], under setting [3], the Emax was found to be 29%. In addition, under setting [4], the MED is recorded as 40.3. Besides, the RED under setting [5] came to 5.4.
Taken in the same sequence, the figures for `CC(C)CCC[C@@H](C)[C@H]1CC[C@H]2[C@@H]3CC[C@H]4[C@H](CC=C(F)F)[C@H](O)CC[C@]4(C)[C@H]3CC[C@]12C` [Example 85, (3a, 4a, 5a, 20β)-4-(3,3-difluoro-2-propenyl) cholestan-3-ol] were 138%, 2.7 and 0.36.
Taken in the same sequence, the figures for `C=C(C)C[C@@H]1[C@H](O)CC[C@@]2(C)[C@H]1CC[C@@H]1[C@@H]2CC[C@]2(C)[C@@H]([C@H](C)CCCC(C)C)CC[C@@H]12` [Example 89, (3a,4a,5a)-4-(2-methyl-2-propenyl)cholestan-3-ol] were 102%, 2.8 and 0.25.
Taken in the same sequence, the figures for `C=C(Cl)C[C@@H]1[C@H](O)CC[C@@]2(C)[C@H]1CC[C@@H]1[C@@H]2CC[C@]2(C)[C@@H]([C@H](C)CCCC(C)C)CC[C@@H]12` [Example 91, (3a,4a,5a)-4-(2-chloro-2-propenyl)cholestan-3-ol] were 96%, 2.7 and 0.24.
With `C=C(Br)C[C@@H]1[C@H](O)CC[C@@]2(C)[C@H]1CC[C@@H]1[C@@H]2CC[C@]2(C)[C@@H]([C@H](C)CCCC(C)C)CC[C@@H]12` [Example 93, (3a,4a,5a)-4-(2-bromo-2-propenyl)cholestan-3-ol], the Emax under setting [3] came to 131%. Moreover, the MED under setting [4] turned out to be 4.9. Under setting [5], the RED was 0.43.
Taken in the same sequence, the figures for `C=CC[C@@H]1[C@H](O)CC[C@@]2(C)[C@H]1CC[C@@H]1[C@@H]2CC[C@]2(C)[C@@H]([C@H](C)CC[C@@H](CC)C(C)C)CC[C@@H]12` [Example 96, (3a, 4a, 5a)-4-(2-propenyl)-stigmastan-3-ol] were 93%, 8.3 and 0.73.
On the same counts, the results for `C=CC[C@@H]1[C@H](O)CC[C@@]2(C)[C@H]1CC[C@@H]1[C@@H]2CC[C@]2(C)[C@@H]([C@H](C)/C=C/[C@@H](CC)C(C)C)CC[C@@H]12` [Example 98, (3a, 4a, 5a, 22E)-4-(2-propenyl)-stigmast-22-en-3-ol] are 66%, 22 and 2.0.
